ChEMBL document CHEMBL1153530, “Pursuing aldose reductase inhibitors through in situ cross-docking and similarity-based virtual screening” (J Med Chem, 2009)

Target: Aldo-keto reductase family 1 member B1 (Rattus norvegicus, UniProt P07943)
Assay: Inhibition of ALR2 from Sprague-Dawley albino rat lens extract by spectrophotometrically

SMILES	IC50 [µM]
CN(C)C(=O)Oc1ccc2nnc3ccnn3c2c1	38.7
O=C(O)CCCc1nc(-c2cnc3n(c2=O)CCS3)no1	1.19
O=[N+]([O-])c1c(Sc2ccccc2)sc(Sc2ccccc2)c1[N+](=O)[O-]	48.1
COc1cccc2c1c(NC(=O)CSCC(=O)O)nn2C	77.6
N#CC(C#N)=CNc1ccc(S(=O)(=O)c2ccc(NC=C(C#N)C#N)cc2)cc1	52.7
Cc1ccc(S(=O)(=O)Oc2c(Cc3ccccc3)c(=O)n(C)c3ccccc23)cc1	31.1
O=C(O)[C@H]1Cc2ccccc2N1C(=O)OCc1ccccc1	41.4

The remaining compounds from weak to strong by IC50, led by results:

IC50 [µM]	SMILES
107	O=C(O)C(Cc1ccc([N+](=O)[O-])cc1)NS(=O)(=O)c1ccccc1 (stereo unspecified)
85.3	O=C(O)C[C@@H](CC(=O)Nc1ccc2ccccc2n1)c1ccccc1
35.6	O=S(=O)(Oc1ccc2nonc2c1)c1ccc(Cl)s1
3.92	O=C(O)[C@@H]1CSCN1C(=O)OCC1c2ccccc2-c2ccccc21
